Assay results: patent US9732075B2, “Benzimidazole-proline derivatives” (IDORSIA PHARMACEUTICALS LTD, priority 2012, dated 2017)

Key:
[1] = target: human orexin-1 receptor (Homo sapiens (Human), UniProt O43613); assay: In vitro assay: intracellular calcium measurements (FLIPR), antagonistic activity; type: cell-based; conditions: CHO cells expressing human orexin-1 receptor, orexin-A agonist, geometric mean, read-out: IC50 Ox1
How it was run: (§1)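 Orexin-A-evoked calcium rise (3 nM final, roughly EC70) was recorded with fluo-4 in recombinant CHO cells, human receptor subtype 1 or 2.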

[2] = target: human orexin-2 receptor (Homo sapiens (Human), UniProt O43614); assay: as above; type: cell-based; conditions: CHO cells expressing human orexin-2 receptor, orexin-A agonist, geometric mean, read-out: IC50 Ox2
How it was run: as §1

Sequence of human orexin-2 receptor (O43614 whole entry): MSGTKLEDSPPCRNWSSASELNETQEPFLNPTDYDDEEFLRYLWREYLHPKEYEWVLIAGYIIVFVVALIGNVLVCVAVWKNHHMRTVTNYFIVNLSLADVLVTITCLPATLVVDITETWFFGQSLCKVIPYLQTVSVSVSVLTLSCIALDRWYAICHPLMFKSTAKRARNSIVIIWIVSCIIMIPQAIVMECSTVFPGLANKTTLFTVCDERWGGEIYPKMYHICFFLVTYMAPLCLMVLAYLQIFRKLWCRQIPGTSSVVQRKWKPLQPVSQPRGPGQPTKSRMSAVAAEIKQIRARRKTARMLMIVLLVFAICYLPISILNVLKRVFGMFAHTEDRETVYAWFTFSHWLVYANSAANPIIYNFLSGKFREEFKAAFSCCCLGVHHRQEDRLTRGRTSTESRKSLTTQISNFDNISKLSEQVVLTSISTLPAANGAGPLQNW
Sequence of human orexin-1 receptor (O43613 whole entry): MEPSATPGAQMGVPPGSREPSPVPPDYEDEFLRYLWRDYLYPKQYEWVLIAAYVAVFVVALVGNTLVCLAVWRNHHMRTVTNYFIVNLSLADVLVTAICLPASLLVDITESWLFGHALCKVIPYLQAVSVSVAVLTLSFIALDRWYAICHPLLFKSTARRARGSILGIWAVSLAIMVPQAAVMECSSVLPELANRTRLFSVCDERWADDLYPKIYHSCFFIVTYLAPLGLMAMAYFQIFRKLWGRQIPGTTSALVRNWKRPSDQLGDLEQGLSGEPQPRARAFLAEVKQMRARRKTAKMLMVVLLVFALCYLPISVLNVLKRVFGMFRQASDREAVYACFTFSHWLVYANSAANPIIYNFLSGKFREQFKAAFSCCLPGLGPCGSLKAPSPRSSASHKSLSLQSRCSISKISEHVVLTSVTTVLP

Row | IC50 [1] | IC50 [2] | Compound
1 | 8 nM | 0.6 nM | C=C1C[C@@H](c2nc3ccc(Cl)c(C)c3[nH]2)N(C(=O)c2nc(C)sc2-c2cccc(C(F)(F)F)c2)C1 [Ex. 6.120]
2 | 16 nM | 84 nM | Cc1ccc(-c2cccc(F)c2)c(C(=O)N2CCC[C@@]2(C)c2nc3cc(C)c(C)cc3n2CC2CC2)c1 [Ex. 7.34]
3 | 1.5 nM | 571 nM | Cc1ccc(-c2ccccc2)c(C(=O)N2CC[C@H](C)[C@H]2c2nc3c(C)c(Cl)ccc3[nH]2)c1F [Ex. 4.171]
4 | 4 nM | 74 nM | Cc1ccc(C(=O)N2CC[C@H](C)[C@H]2c2nc3c(C)cc(Cl)cc3[nH]2)c(-n2nccn2)c1 [Ex. 4.93]
5 | 3 nM | 19 nM | Cc1ccc(C(=O)N2CC[C@H](C)[C@H]2c2nc3c(C)c(Cl)ccc3[nH]2)c(-n2nccn2)c1 [Ex. 4.62]
6 | 21 nM | 75 nM | C=C1CN(C(=O)c2nc(C)sc2-c2ccc(C)c(C)c2)C(C)(c2nc3cc(OC)ccc3[nH]2)C1 (racemic) [Ex. 6.145]
7 | 29 nM | 3190 nM | Cc1ccc2[nH]c([C@@H]3[C@@H](C)CCN3C(=O)c3nc(C)sc3-c3ccccc3)nc2c1 [Ex. 4.5]
8 | 364 nM | 32 nM | C=C1C[C@@H](c2nc3cccc(C)c3[nH]2)N(C(=O)c2cc(Cl)ccc2-n2nccn2)C1 [Ex. 6.102]
9 | 33 nM | 4 nM | C=C1C[C@@H](c2nc3cc(C(C)(C)C)ccc3[nH]2)N(C(=O)c2ccc(C)cc2-n2nccn2)C1 [Ex. 6.166]
10 | 94 nM | 44 nM | CO[C@H]1CN(C(=O)c2cc(OC(F)(F)F)ccc2-n2nccn2)C(C)(c2nc3c(C)c(Cl)ccc3[nH]2)C1 (stereo partly shown) [Ex. 3.51]
11 | 23 nM | 39 nM | Cc1ccc(-c2ccc(C)cc2C(=O)N2CCC[C@@]2(C)c2nc3cc(C)c(C)cc3n2CCF)cc1 [Ex. 7.40]
12 | 27 nM | 104 nM | Cc1nc(C(=O)N2CCCC2c2nc3c(Cl)cc(C(F)(F)F)cc3[nH]2)c(-c2cccc(Cl)c2)s1 (stereo not shown) [Ex. 1.100]
13 | 38 nM | 113 nM | Cc1ccc(-c2ccc(C#N)cc2)c(C(=O)N2CCC[C@@]2(C)c2nc3cc(C(F)(F)F)c(Cl)cc3[nH]2)c1 [Ex. 5.160]
14 | 649 nM | 105 nM | C=C1CN(C(=O)c2ccccc2-n2nccn2)C(C)(c2nc3cc(OC)ccc3[nH]2)C1 (stereo not shown) [Ex. 6.155]
15 | 8 nM | 3 nM | C=C1C[C@@H](c2nc3c(Cl)cccc3[nH]2)N(C(=O)c2nc(C)sc2-c2ccc(C)c(C)c2)C1 [Ex. 6.51]
16 | 55 nM | 4 nM | C=C1C[C@@H](c2nc3cccc(C)c3[nH]2)N(C(=O)c2nc(C)sc2-c2ccc(Br)cc2)C1 [Ex. 6.100]
17 | 17 nM | 22 nM | C=C1C[C@@H](c2nc3cc(C(F)(F)F)c(Cl)cc3[nH]2)N(C(=O)c2nc(C)sc2-c2ccc(C)c(C)c2)C1 [Ex. 6.142]
18 | 3890 nM | 67 nM | COc1ccc2nc([C@@H]3C[C@@H](OC)CN3C(=O)c3cc(F)ccc3-n3nccn3)[nH]c2c1 [Ex. 3.23]
19 | 14 nM | 1670 nM | Cc1nc(C(=O)N2CC[C@H](C)[C@H]2c2nc3c(CO)cccc3[nH]2)c(-c2cccc(Cl)c2)s1 [Ex. 4.17]

Row | IC50 [1] | IC50 [2] | Compound
20 | 17 nM | 720 nM | Cc1ccc(C(=O)N2CCC[C@@]2(C)c2nc3cc(C)c(C)cc3n2C)c(-n2nccn2)c1 [Ex. 7.11]
21 | 18 nM | 45 nM | CO[C@H]1CN(C(=O)c2nc(C)ccc2-n2cccn2)C(C)(c2nc3c(C)c(Cl)ccc3[nH]2)C1 (stereo partly shown) [Ex. 3.55]
22 | 2 nM | 1 nM | C=C1CC(c2nc3c(C)cccc3[nH]2)N(C(=O)c2nc(C3CC3)sc2-c2cccc(C)c2)C1 (stereo not shown) [Ex. 6.94]
23 | 27 nM | 244 nM | C[C@@]1(c2nc3cc(C(F)(F)F)c(Cl)cc3[nH]2)CCCN1C(=O)c1ccccc1-n1cccn1 [Ex. 5.141]
24 | 5 nM | 29 nM | Cc1ccc(-n2nccn2)c(C(=O)N2CCC[C@@]2(C)c2nc3cc(Cl)c(Cl)cc3[nH]2)c1 [Ex. 5.7]
25 | 89 nM | 13 nM | C=C1C[C@@H](c2nc3cc(C)c(C)cc3[nH]2)N(C(=O)c2nc(C)ccc2-n2nccn2)C1 [Ex. 6.202]
26 | 137 nM | 0.6 nM | C=C1C[C@@H](c2nc3ccc(OC)cc3[nH]2)N(C(=O)c2cc(C)c(C)cc2-n2nccn2)C1 [Ex. 6.139]
27 | 111 nM | 4440 nM | COc1ccc(-c2sc(C)nc2C(=O)N2CC[C@H](C)[C@H]2c2nc3cc(OC)c(OC)cc3[nH]2)cn1 [Ex. 4.53]
28 | 1 nM | 2 nM | CCn1c([C@]2(C)CCCN2C(=O)c2cc(C)ccc2-n2nccn2)nc2c(C)c(Cl)ccc21 [Ex. 7.21]
29 | 45 nM | 89 nM | Cc1nc(C(=O)N2CCCC2c2nc3c(C(F)(F)F)cccc3[nH]2)c(-c2cccc(Cl)c2)s1 (stereo not shown) [Ex. 1.105]
30 | 5 nM | 2260 nM | Cc1nc(C(=O)N2CC[C@H](C)[C@H]2c2nc3cc(C(F)(F)F)ccc3[nH]2)c(-c2ccc(Cl)cc2)s1 [Ex. 4.139]
31 | 2 nM | 4 nM | Cc1ccc(-c2ncccn2)c(C(=O)N2CCC[C@@]2(C)c2nc3c(C)c(Cl)ccc3[nH]2)c1 [Ex. 5.214]
32 | 26 nM | 4910 nM | COC(=O)c1cccc2nc([C@@H]3[C@@H](C)CCN3C(=O)c3nc(C)sc3-c3cccc(Cl)c3)[nH]c12 [Ex. 4.13]
33 | 33 nM | 33 nM | COc1cc2nc([C@]3(C)CCCN3C(=O)c3cc(Cl)ccc3-n3nccn3)n(C)c2cc1OC [Ex. 7.24]
34 | 6 nM | 2110 nM | Cc1nc(C(=O)N2CC[C@H](C)[C@H]2c2nc3cc(C(F)(F)F)ccc3[nH]2)c(-c2ccccc2Cl)s1 [Ex. 4.146]
35 | 12 nM | 15 nM | Cc1ccc(C(=O)N2CCC[C@@]2(C)c2nc3cc(C)c(C)cc3[nH]2)c(-n2nccn2)c1 [Ex. 5.56]
36 | 113 nM | 1 nM | C[C@@]1(c2nc3cc(C(F)(F)F)ccc3[nH]2)CCCN1C(=O)c1cc(Br)ccc1-c1ccccc1 [Ex. 5.262]
37 | 245 nM | 5 nM | COc1ccc2nc([C@@H]3CCCN3C(=O)c3cc(C)ccc3-n3nccn3)[nH]c2c1 [Ex. 1.16]
38 | 5 nM | 10 nM | Cc1nc(C(=O)N2CCCC2c2nc3c(C)c(Cl)ccc3[nH]2)c(-c2cccc(Cl)c2)s1 (stereo not shown) [Ex. 1.109]

Row | IC50 [1] | IC50 [2] | Compound
39 | 2 nM | 4 nM | CCn1c([C@]2(C)CCCN2C(=O)c2nc(C)sc2-c2ccccc2)nc2c(C)c(Cl)ccc21 [Ex. 7.8]
40 | 1 nM | 6 nM | Cc1cc(C(=O)N2CCC[C@@]2(C)c2nc3cc(F)c(Br)cc3[nH]2)c(-n2nccn2)cc1C [Ex. 5.127]
41 | 94 nM | 85 nM | COc1cc(C(=O)N2CCC[C@@]2(C)c2nc3cc(OC)c(OC)cc3[nH]2)c(-n2nccn2)cc1OC [Ex. 5.86]
42 | 115 nM | 64 nM | CSc1ccc2nc([C@@H]3CCCN3C(=O)c3nc(C4CC4)sc3-c3ccc(C)cc3)[nH]c2c1 [Ex. 1.41]
43 | 2 nM | 0.7 nM | C=C1C[C@@H](c2nc3ccc(Cl)c(C)c3[nH]2)N(C(=O)c2nc(C)sc2-c2cccc(Br)c2)C1 [Ex. 6.123]
44 | 8 nM | 19 nM | CCn1c([C@]2(C)CCCN2C(=O)c2cc(C)ccc2-c2cccc(F)c2)nc2cc(C)c(C)cc21 [Ex. 7.31]
45 | 8 nM | 21 nM | CCn1c([C@]2(C)CCCN2C(=O)c2cc(C)ccc2-c2ccc(F)cc2)nc2cc(C)c(C)cc21 [Ex. 7.16]
46 | 5 nM | 12 nM | C=C1CC(c2nc3c(Br)cccc3[nH]2)N(C(=O)c2cc(C)sc2-c2ccc(C)c(C)c2)C1 (stereo not shown) [Ex. 6.78]
47 | 0.9 nM | 8 nM | CO[C@@H]1C[C@@H](c2nc3ccc(Cl)c(C)c3[nH]2)N(C(=O)c2nc(C)sc2-c2ccc(C)c(C)c2)C1 [Ex. 3.34]
48 | 8 nM | 4 nM | C=C1CC(c2nc3cc(C)c(C)cc3[nH]2)N(C(=O)c2cc(C)sc2-c2ccc(C)c(C)c2)C1 (racemic) [Ex. 6.75]
49 | 59 nM | 12 nM | C=C1C[C@@H](c2nc3cc(C)c(C)cc3[nH]2)N(C(=O)c2c(-n3nccn3)ccc(C)c2F)C1 [Ex. 6.196]
50 | 548 nM | 360 nM | COc1cc2nc([C@]3(C)CCCN3C(=O)c3ncsc3-c3cccc(Cl)c3)[nH]c2cc1OC [Ex. 5.80]
51 | 44 nM | 740 nM | COc1ccc(OC)c2[nH]c([C@]3(C)CCCN3C(=O)c3cc(C)ccc3-n3nccn3)nc12 [Ex. 5.31]
52 | 0.7 nM | 7 nM | CO[C@@H]1C[C@@H](c2nc3ccc(Cl)c(C)c3[nH]2)N(C(=O)c2nc(N(C)C)sc2-c2cccc(Cl)c2)C1 [Ex. 3.41]
53 | 104 nM | 419 nM | C[C@@]1(c2nc3cc(C(F)(F)F)ccc3[nH]2)CCCN1C(=O)c1c(F)cccc1-n1nccn1 [Ex. 5.164]
54 | 66 nM | 171 nM | Cc1ccc(-c2ccccc2F)c(C(=O)N2CCC[C@@]2(C)c2nc3cc(C)c(C)cc3n2CC2CC2)c1 [Ex. 7.50]
55 | 36 nM | 208 nM | C=C1CC(c2nc3cc(Cl)c(C(F)(F)F)cc3[nH]2)N(C(=O)c2cc(C)sc2-c2ccc(C)c(C)c2)C1 (stereo not shown) [Ex. 6.82]
56 | 87 nM | 270 nM | COCCn1c([C@]2(C)CCCN2C(=O)c2cc(C)ccc2-c2ccccc2F)nc2cc(C)c(C)cc21 [Ex. 7.54]
57 | 30 nM | 77 nM | CSc1cccc2nc([C@@H]3CCCN3C(=O)c3cnc(C)nc3-c3ccccc3)[nH]c12 [Ex. 1.87]

Row | Compound | IC50 [1] | IC50 [2]
58 | Cc1ccc(-n2nccn2)c(C(=O)N2CCC[C@@]2(C)c2nc3cc(OC(F)(F)F)ccc3[nH]2)c1 [Ex. 5.20] | 19 nM | 161 nM
59 | COc1ccc(-n2nccn2)c(C(=O)N2CCC[C@@]2(C)c2nc3c(C)cccc3[nH]2)c1 [Ex. 5.50] | 49 nM | 33 nM
